From US11001802B2, “Surface of a vessel with polystyrene, nitrogen, oxygen and a static sessile contact angle for attachment and cultivation of cells” (Nunc A/S, priority 2008, dated 2021)

Assays:
H9 human ES cells = assay: Adherence of H9 human ES cells to surface modified plates with increasing Y-27632, crystal violet (Example 12); format: cell-based
Procedure: Passage 49 H9 human ES cells previously plated to 1:30 Matrigel™ treated plasticware and grown in MEF conditioned media supplemented with 8 ng/ml of bFGF were LIBERASE treated and plated to surface modified plates in MEF conditioned media supplemented with 8 ng/ml of bFGF and not otherwise treated or supplemented with increasing concentrations of Y-27632. 24 and 48 hours after plating H9 human ES cells to surface modified plates small colonies could be observed on Surfaces 2-4 and 13, and CellBIND™, and Primaria™ (cat. no. 353846, Becton Dickinson, Franklin Lakes, N.J.) with crystal violet stain (FIGS. 24-26). Furthermore, the adherence of H9 human ES cell colonies was improved by the addition of Y-27632 and the effect was dose responsive (FIG. 25).

human ES cell line H9 = assay: Attachment and colony formation of H9 human ES cells on surface modified plates with Rho kinase inhibitors (crystal violet, image analysis); format: cell-based
Procedure: (§1) Human ES cells of the line H9, at passage 40 were maintained in MEF conditioned media on Nunclon Delta™ plates treated with a 1:30 dilution of growth factor reduced Matrigel™, prior to study. Cells were dissociated from the surface for passage by 1 mg/ml collagenase dissociation or by manual scraping.
These cells were then seeded onto surface modified plates 2, 3, 4 and 13 (12-well format) in the presence of increasing amounts one of the following Rho Kinase inhibitors: Y-27632 (from Sigma, St. Louis, Mo. or EMD, San Diego, Calif.), Fasudil (Sigma), or Hydroxyfasudil (Sigma), and maintained for 3 days, each day replacing the media and compound. At the end of day three, media was removed and the plates were stained with Crystal Violet (0.5% in water) to visualize colonies.
It was attempted to determine the optimal dose of Y-27632 to promote cell binding, by treating cells with a range of plating concentrations of Y-27632 for the first day of culture. After the first day in culture cells were treated on subsequent days with a 10 μM concentration of Y-27632. It was observed that the maximal concentration to stimulate attachment and growth of ES cells was 10 μM (FIG. 12) and that this occurred on surface modified plates 2, 3, 4, 13 and CellBIND™ (Corning, Corning, N.Y.).
The effect of treating the cells continuously with a single dose of Y-27632 on attachment and growth was also tested. The cells were dosed with 0, 1, 4, or 10 μM Y-27632 for 4 days. Some binding was observed on surface modified plates without treatment (0 μM), however the optimal concentration to stimulate attachment and growth of ES cells was 10 μM Y-27632 (Table 4) on surface modified plates 2, 3, 4, 13.

[1] = test system: dissociated human embryonic stem cells; conditions: from approximately 1%; Wanatabe et al.; cited from earlier work
human ES cell line H1 = assay: Attachment, plating efficiency and passage time of H1 human ES cells on surface modified plates (Examples 3, 4); format: cell-based
Procedure: as §1, with “H1,” for “H9,”, “49” for “40”
These cells were then seeded onto two untreated wells of the surface modified plates (6-well format). Additionally, one well of each plate was treated with 0.1% xeno-free human gelatin as a control. Cells were also plated directly onto untreated and gelatin-treated wells of Costar™ (cat. no. 3516; Corning, Corning, N.Y.), Falcon™ (cat. no. 351146; Becton Dickinson, Franklin Lakes, N.J.) and Nunclon Delta™ (cat. no. 140675; Thermo Fisher Scientific, Roskilde, Denmark) 6-well plates for negative controls, and plated onto wells treated with 1:30 dilution of growth factor reduced Matrigel™ to provide as positive controls. In all treatments cells were maintained in MEF conditioned media.
Human ES cells of the line H1, at passage 49 were maintained in MEF conditioned media on Nunclon Delta™ plates treated with a 1:30 dilution of growth factor reduced Matrigel™, prior to study. Cells were dissociated from the surface for passage by 1 mg/ml collagenase dissociation.
These cells were then seeded onto untreated wells of surface modified plates (6-well format). […]

HEK293 cells = assay: HEK293 growth over three passages, total cell number (Example 22); format: cell-based, human; conditions: Surface 4 and Nunclon Delta surface; 2.5 μM Y-27632
Procedure: EMEM (500 μl) supplemented with 10% FBS containing 5.0 μM Y-27632 was dispensed in wells of Multidish 24-well plates with Surface 4 or Nunclon Delta™ surface. Another 500 μl of EMEM supplemented with 10% FBS and containing HEK293 cells was added to the wells (2.0×10^4 cells/cm^2), and the cultures were incubated at 37° C. in a humidified atmosphere of 5% CO2 in air for 3 days. Cells were passaged by treatment with Trypsin/EDTA (Lonza, Verviers, Belgium) for two minutes at 37° C., and the total cell number was determined using a NucleoCount Cell Counter (Chemometec A/S, Allered, Denmark). For successive passages, HEK293 cells were seeded at 2.0×10^4 cells/cm^2. The growth of HEK293 cells on Surface 4 and Nunclon Delta™ surface was enhanced by the presence of 2.5 μM Y-27632 (FIG. 34).

C[C@@H](N)[C@H]1CC[C@H](C(=O)Nc2ccncc2)CC1 [Surface Y-27632, Y-27632]
human ES cell attachment versus untreated (H9 human ES cells; 1 to 2 micromolar Y-27632): minimal improvement
adherence of human ES cells to surface modified plates (H9 human ES cells; 4 to 20 micromolar Y-27632): promoted adherence
attachment of ES cell colonies by day three (human ES cell line H9; H9 on surface modified plates 2, 3, 4 and 13, crystal violet, Y-27632 at 10 μM): Best results
cell proliferation (human ES cell line H9; Matrigel treated plates with or without 10 μM Y-27632 (FIG. 14)): grow at a similar density as untreated cells
optimal concentration to stimulate attachment and growth of ES cells (human ES cell line H9; continuous 0, 1, 4 or 10 μM for 4 days, plates 2, 3, 4, 13): 10 µM
maximal concentration to stimulate attachment and growth of ES cells (human ES cell line H9; range of plating concentrations first day, then 10 μM, plates 2, 3, 4, 13 and CellBIND): 10 µM
cloning efficiency [1]: approximately 27%
plating efficiency (human ES cell line H1; H1 (p52) on surface modified plates, 10 μM Y-27632 in MEF conditioned media for 48 hours): significantly increased plating efficiency
readiness for passage 4 days after plating (human ES cell line H1; H1 on surface modified plates, 10 μM Y-27632 or 0.5 ng/ml C3 exotransferase): could be passaged 4 days after plating
growth of HEK293 cells over 3 passages (HEK293 cells): enhanced
